Measured values reported in patent publication US20250064890A1, “PROTEIN COMPOSITIONS FOR THE TREATMENT OF INFLAMMATORY DISEASES” (Unichem Laboratories Limited, priority 2021, published 2025).

How the values were obtained:
[1] = Body weight change in 5-FU induced OM hamsters; assay type: in vivo, golden Syrian hamsters; conditions: G3, 0.1 mg/Animal in buccal cheek pouch, Day 4 to Day 12, with respect to Day 4
Protocol: In-vivo experiments conducted in healthy golden Syrian hamsters wherein animals were grouped as below:
(§1) To induce OM, animals were administered (except normal control) 5-Fluorouracil (5-FU) by intraperitoneal route at doses of 60 mg/kg & 40 mg/kg respectively on first two days. On Day 4, under anesthesia, with aim of enhancing OM, mechanical irritation of the oral mucosa were done using wire brush. Treatment was initiated from Day 4 to Day 12. For group 3 animals 100 μl of vehicle comprising of standard drug Dexamethasone at 0.1 mg was instilled in buccal cheek pouch. For group 4, 5 and 6 animals 100 μl of vehicle comprising of SEQ ID NO. 2 at 0.25 mg, 0.5 mg & 1 mg, respectively was instilled in buccal cheek pouch. At the end of treatment period, cheek pouch of the hamsters was exposed, Mucositis scoring was carried out and images were captured. The animals were then humanely sacrificed, cheek pouch/jugular mucosa were isolated and used for biomarker estimation and histopathological investigation by using ELISA method and Hematoxylin and Eosin (H&E) staining, respectively.
Body weight of each animal was recorded daily till the end of experiment. Percentage change in body weight of the animals was calculated by using formula with respect to Day 4.

[2] = tested on: 5-Fluorouracil induced OM; assay: Mucositis severity score, 5-FU induced OM in hamsters; assay type: in vivo, golden Syrian hamsters; conditions: G3, 0.1 mg/Animal, after 12 days; scale 0-5
Protocol: as §1
Mucositis severity was scored as given below: • Cheek pouch completely healthy—0; Mild erythema—1; • Severe erythema and superficial erosion—2; Formation of ulcers in one or more places—3; Cumulative ulcer formation about 50% of cheek pouch surface area—4; Complete ulceration of the cheek pouch mucosa—5.

TNF-α = TNF-α in jugular mucosa (ELISA), 5-FU induced OM in hamsters; assay type: in vivo, golden Syrian hamsters; conditions: G3, 0.1 mg/Animal
Protocol: as §1
(§2) Further, for biomarker estimation jugular mucosa was dissected out, tissue weighed and stored in ice cold 1×PBS. 100 mg of tissue was taken and in 1 ml of 1×PBS buffer. Supernatant of homogenate was used for analysis of TNF-α and Interleukin-1β using ELISA method as per manufacturers instruction. The levels of TNF-α and Interleukin-1β are given in Table 13, FIG. 2 and Table 14, FIG. 3, respectively.

Interleukin-1β = Interleukin-1β in jugular mucosa (ELISA), 5-FU induced OM in hamsters; assay type: in vivo, golden Syrian hamsters; conditions: G3, 0.1 mg/Animal
Protocol: as §1, §2

[3] = tested on: 5-Fluorouracil induced OM; assay: Histopathology score of cheek pouch, 5-FU induced OM in hamsters; assay type: in vivo, golden Syrian hamsters; conditions: G3, 0.1 mg/Animal; scale 1-5
Protocol: as §1
For histopathology the oral mucosa tissues were sectioned 5 μm thickness and stained with hematoxylin-eosin staining. For study histopathological the sections were analyzed by light microscopy.
The pouch/jugular mucosa were observed and scored for infiltration of inflammatory cells, vasodilatation, presence of hemorrhagic areas, edema, ulcerations, and abscesses.

[4] = tested on: oral (buccal) mucosa cells (TR146); assay: Cytoprotective effect against 5-FU induced damage (MTT); assay type: cell-based, human
Protocol: The cell viability was assessed by (MTT) assay and compared with positive control (Cells treated with Amifostine, EGCG and EGF and negative assay (untreated cells), wherein the control was the cells that underwent chemotherapy/radiotherapy.
The protective effect of the recombinant lectin on survival of TR146 cells against 5-FU induced damage was determined using following calculations:
The viability of cells was determined as: % Cell viability=(100−% Cytotoxicity); • where, the percentage cytotoxicity corresponding to each treatment was calculated as: % Cytotoxicity=[(R−X)/R]*100, wherein X=Absorbance of cells treated with 5-FU or radiation damage/TI+5-FU, R=Absorbance of Control cells (Untreated) and Percentage protection was calculated as:
{(Absorbance of TI+5-FU or radiation)−(Absorbance of 5-FU or radiation alone)/(Absorbance of Untreated)−(Absorbance of 5-FU alone)}*100

| SMILES | decrease of body weight [1] | Mucositis score [2] | TNF-α levels, Mean (TNF-α) | TNF-α levels, % Decrease vs G2 (TNF-α; G2 = OM + Vehicle) | IL-1β levels, Mean (Interleukin-1β) | IL-1β levels, % Decrease vs G2 (Interleukin-1β; G2 = OM + Vehicle) | Histopathology score, Mean [3] | % Protection ([4]; 0.01 μM + 5-FU (5 mM)) | % cytotoxicity ([4]; 0.01 μM + 5-FU (5 mM)) | % viability ([4]; 0.01 μM + 5-FU (5 mM)) | % Protection ([4]; 0.1 μM + 5-FU (5 mM)) | % cytotoxicity ([4]; 0.1 μM + 5-FU (5 mM)) | % viability ([4]; 0.1 μM + 5-FU (5 mM)) | % Protection ([4]; 1 μM + 5-FU (5 mM)) | % cytotoxicity ([4]; 1 μM + 5-FU (5 mM)) | % viability ([4]; 1 μM + 5-FU (5 mM)) | % Protection ([4]; 10 μM + 5-FU (5 mM)) | % cytotoxicity ([4]; 10 μM + 5-FU (5 mM)) | % viability ([4]; 10 μM + 5-FU (5 mM)) |
| --- | --- | --- | --- | --- | --- | --- | --- | --- | --- | --- | --- | --- | --- | --- | --- | --- | --- | --- | --- |
| C[C@@H]1C[C@H]2[C@@H]3CCC4=CC(=O)C=C[C@]4(C)[C@@]3(F)[C@@H](O)C[C@]2(C)[C@@]1(O)C(=O)CO [Dexamethasone, reference compound] | 6.59% | 2.00±0.3 | 134.29 pg/mL | −8.29% | 163.96 | 5.59% | 1.6 | – | – | – | – | – | – | – | – | – | – | – | – |
| O=C(O[C@@H]1Cc2c(O)cc(O)cc2O[C@@H]1c1cc(O)c(O)c(O)c1)c1cc(O)c(O)c(O)c1 [EGCG, Epigallocatechin gallate] | – | – | – | – | – | – | – | 19.5% | 47% | 53% | 42.4% | 33.6% | 66.4% | 47.9% | 30.4% | 69.6% | 24.2% | 44.2% | 55.8% |
